Experimental data from patent publication US9340493B2, “Hydroxamic acid derivatives useful as antibacterial agents” (Pfizer Inc., priority 2008, dated 2016).
In brackets after ≈: the same amount, converted by molar mass.

Key:
Klebsiella pneumoniae = assay: MIC determination, K. pneumoniae; assay type: cell-based; details: ciprofloxacin-resistant, ESBL-expressing clinical isolate, * = arithmetic mean of 2-6 MIC determinations, read-out: MIC (ug/mL) K. pneumoniae
Outline: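 MIC determined by broth dilution per CLSI M7-A7 and M100-S18 guidelines. Strain: ciprofloxacin-resistant, ESBL-expressing clinical isolate of K. pneumoniae.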

Enterobacter aerogenes = assay: MIC determination, E. aerogenes; assay type: cell-based; details: Klebsiella aerogenes; quinolone-resistant, ESBL-expressing clinical isolate; * = arithmetic mean of 2-6 MIC determinations; read-out: MIC (ug/mL) E. aerogenes
Outline: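 Clinical E. aerogenes isolate, quinolone-resistant and ESBL-expressing. MIC measured in vitro by dilution testing according to CLSI guidelines (M7-A7, M100-S18).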

Serratia marcescens = assay: MIC determination, S. marcescens; assay type: cell-based; details: multidrug-resistant clinical isolate, * = arithmetic mean of 2-6 MIC determinations, read-out: MIC (ug/mL) S. marcescens
Experimental: MIC determinations: The in vitro antibacterial activity of compounds described in the Examples was evaluated by minimum inhibitory concentration (MIC) testing according to Clinical and Laboratory Standards Institute (CLSI, formerly NCCLS) guidelines. See: Clinical and Laboratory Standards Institute. Methods for Dilution Antimicrobial Susceptibility Tests for Bacteria that Grow Aerobically; Approved Standard-Seventh Edition. CLSI document M7-A7 [ISBN 1-56238-587-9]. Clinical and Laboratory Standards Institute, 940 West Valley Road, Suite 1400, Wayne, Pa. 19087-1898 USA, 2006; also Clinical and Laboratory Standards Institute. Performance Standards for Antimicrobial Susceptibility Testing; Eighteenth Informational Supplement. CLSI document M100-S18 [ISBN1-56238-653-0]. Clinical and Laboratory Standards Institute.
The following bacterial strains were used:
Serratia marcescens: Multidrug-resistant clinical isolate.

[1] = target: T1, Pseudomonas aeruginosa LpxC enzyme (Pseudomonas aeruginosa, UniProt P47205); assay: IC50 assay, LpxC enzyme from P. aeruginosa; assay type: biochemical; details: 0.5 nM enzyme, 25° C., pH 8.0, 20 min; ** = average of 2-8 assays
T1 construct: made in house; host or cells: E. coli
T1 sequence (P47205 1-303): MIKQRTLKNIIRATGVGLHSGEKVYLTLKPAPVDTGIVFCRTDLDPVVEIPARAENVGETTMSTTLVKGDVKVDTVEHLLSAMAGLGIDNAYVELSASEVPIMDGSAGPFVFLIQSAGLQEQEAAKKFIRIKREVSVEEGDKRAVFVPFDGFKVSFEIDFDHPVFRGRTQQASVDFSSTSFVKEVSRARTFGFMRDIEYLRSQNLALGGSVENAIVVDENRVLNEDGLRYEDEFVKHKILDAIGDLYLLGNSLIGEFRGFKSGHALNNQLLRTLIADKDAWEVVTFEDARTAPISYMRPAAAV
Outline: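 P. aeruginosa LpxC (0.5 nM, expressed in E. coli) reacted with 0.5 uM ³H-acetyl-labelled UDP-3-O-(R-3-hydroxydecanoyl)-GlcNAc in 50 mM sodium phosphate pH 8.0 with 1 mg/ml BSA at 25 °C for 20 min. Charcoal stopped the reaction, and filtrate radioactivity was counted by scintillation after no-enzyme background subtraction.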

[2] = tested on: Acinetobacter baumanii/haemolyticus; assay: MIC determination, A. baumanii/haemolyticus; assay type: cell-based; details: Acinetobacter baumannii; multidrug-resistant clinical isolate; * = arithmetic mean of 2-6 MIC determinations; read-out: MIC (ug/mL) A. baumanii/haemolyticus
Outline: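 MICs were determined by CLSI broth dilution (M7-A7, M100-S18) against a multidrug-resistant clinical isolate of Acinetobacter baumanii/haemolyticus.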

P. aeruginosa UI-18 = assay: MIC determination, P. aeruginosa UI-18; assay type: cell-based; details: Pseudomonas aeruginosa, UI18; wild-type; * = arithmetic mean of 2-6 MIC determinations; read-out: MIC (ug/mL) P. aeruginosa UI-18
Outline: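 MIC by broth dilution following CLSI M7-A7 and M100-S18 guidelines, tested against wild-type P. aeruginosa UI-18.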

Escherichia coli EC-1 = assay: MIC determination, E. coli EC-1; assay type: cell-based; details: EC1, EC-1: VOGEL, * = arithmetic mean of 2-6 MIC determinations, read-out: MIC (ug/mL) E. coli EC-1
Outline: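 Minimum inhibitory concentration against Escherichia coli EC-1 was determined in vitro by dilution susceptibility testing under CLSI M7-A7 and M100-S18 guidelines.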

P. aeruginosa PAO280 = assay: MIC determination, P. aeruginosa PAO280; assay type: cell-based; details: Pseudomonas aeruginosa, PAO280, read-out: MIC (ug/mL) P. aeruginosa PAO280
Outline: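 Broth dilution MIC per CLSI M7-A7/M100-S18 guidelines. Strain PAO280 lacks efflux pumps MexAB-oprM, MexXY and MexZ.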

[3] = tested on: Staphylococcus aureus ATCC 29213; assay: MIC determination, S. aureus ATCC 29213; assay type: cell-based; details: ATCC29213, CLSI quality control reference strain, * = arithmetic mean of 2-6 MIC determinations, read-out: MIC (ug/mL) S. aureus ATCC 29213
Outline: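 MIC was measured by dilution susceptibility testing following CLSI guidelines (M7-A7; M100-S18). The test organism is the CLSI quality-control reference strain.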

Row | Structure (SMILES) | MIC (Klebsiella pneumoniae) | MIC (Enterobacter aerogenes) | MIC (Serratia marcescens) | IC50 [1] | MIC [2] | MIC (P. aeruginosa UI-18) | MIC (Escherichia coli EC-1) | MIC (P. aeruginosa PAO280) | MIC [3]
1 | CC[C@H](O)[C@](C)(OCc1ccc(-c2ccccc2)cc1)C(=O)NO [Example 1, (2S,3S)-2-(biphenyl-4-ylmethoxy)-N,3-dihydroxy-2-methylpentanamide] | > 64 µg/mL | > 64 µg/mL | > 64 µg/mL | 0.00844 µM | > 64 µg/mL | > 64 µg/mL | > 64 µg/mL | 3 µg/mL (≈ 9.11 µM) | > 64 µg/mL
2 | C[C@H](O)[C@](C)(OCc1ccc(-c2ccccc2)cc1)C(=O)NO [Example 2a, (2S,3S)-2-(biphenyl-4-ylmethoxy)-N,3-dihydroxy-2-methylbutanamide] | > 64 µg/mL | > 64 µg/mL | > 64 µg/mL | 0.00299 µM | > 64 µg/mL | 32 µg/mL (≈ 101 µM) | > 64 µg/mL | 0.5 µg/mL (≈ 1.59 µM) | > 64 µg/mL
3 | C[C@@H](O)[C@](C)(OCc1ccc(-c2ccccc2)cc1)C(=O)NO [Example 2b, (2S,3R)-2-(biphenyl-4-ylmethoxy)-N,3-dihydroxy-2-methylbutanamide] | > 64 µg/mL | > 64 µg/mL | > 64 µg/mL | 0.00435 µM | > 64 µg/mL | 64 µg/mL (≈ 203 µM) | > 64 µg/mL | 0.75 µg/mL (≈ 2.38 µM) | > 64 µg/mL
4 | CC(C)[C@H](O)[C@](C)(OCc1ccc(-c2ccccc2)cc1)C(=O)NO [Example 3, (2S,3S)-2-(biphenyl-4-ylmethoxy)-N,3-dihydroxy-2,4-dimethylpentanamide] | > 64 µg/mL | > 64 µg/mL | > 64 µg/mL | 0.0716 µM | > 64 µg/mL | > 64 µg/mL | > 64 µg/mL | 32 µg/mL (≈ 93.2 µM) | > 64 µg/mL
5 | CCCC[C@H](O)[C@](C)(OCc1ccc(-c2ccccc2)cc1)C(=O)NO [Example 5, (2S,3S)-2-(biphenyl-4-ylmethoxy)-N,3-dihydroxy-2-methylheptanamide] | > 64 µg/mL | > 64 µg/mL | > 64 µg/mL | 0.0878 µM | > 64 µg/mL | > 64 µg/mL | > 64 µg/mL | 16 µg/mL (≈ 44.8 µM) | 64 µg/mL (≈ 179 µM)
6 | CC(C)C[C@H](O)[C@](C)(OCc1ccc(-c2ccccc2)cc1)C(=O)NO [Example 6, (2S,3S)-2-(biphenyl-4-ylmethoxy)-N,3-dihydroxy-2,5-dimethylhexanamide] | > 64 µg/mL | > 64 µg/mL | > 64 µg/mL | 0.16 µM | > 64 µg/mL | > 64 µg/mL | > 64 µg/mL | 64 µg/mL (≈ 179 µM) | 64 µg/mL (≈ 179 µM)
7 | C[C@@](OCc1ccc(-c2ccccc2)cc1)(C(=O)NO)[C@@H](O)CC(F)(F)F [Example 7, (2S,3S)-2-(biphenyl-4-ylmethoxy)-N,3-dihydroxy-2-methyl-5,5,5-trifluoropentanamide] | > 64 µg/mL | > 64 µg/mL | > 64 µg/mL | 0.00953 µM | > 64 µg/mL | > 64 µg/mL | > 64 µg/mL | 2 µg/mL (≈ 5.22 µM) | 64 µg/mL (≈ 167 µM)
8 | CCOCC[C@H](O)[C@](C)(OCc1ccc(-c2ccccc2)cc1)C(=O)NO [Example 8, (2S,3S)-2-(biphenyl-4-ylmethoxy)-5-ethoxy-N,3-dihydroxy-2-methylpentanamide] | > 64 µg/mL | > 64 µg/mL | > 64 µg/mL | 0.0284 µM | > 64 µg/mL | > 64 µg/mL | > 64 µg/mL | 8 µg/mL (≈ 21.4 µM) | > 64 µg/mL
9 | C[C@@](OCc1ccc(-c2ccccc2)cc1)(C(=O)NO)[C@@H](O)c1c[nH]cn1 [Example 9, (2S,3S)-2-(biphenyl-4-ylmethoxy)-N,3-dihydroxy-3-(1H-imidazol-4-yl)-2-methylpropanamide] | > 64 µg/mL | > 64 µg/mL | > 64 µg/mL | 0.00084 µM | > 64 µg/mL | 8 µg/mL (≈ 21.8 µM) | > 64 µg/mL | 0.125 µg/mL (≈ 0.34 µM) | > 64 µg/mL
10 | COCc1cc(CNC(=O)C(C)(OCc2ccc(-c3ccccc3)cc2)C(=O)NO)no1 (stereo not drawn) [Example 85, 2-(biphenyl-4-ylmethoxy)-N-hydroxy-N′-{[5-(methoxymethyl)isoxazol-3-yl]methyl}-2-methylmalonamide] | 32 µg/mL (≈ 72.8 µM) | > 64 µg/mL | – | 0.00159 µM | 64 µg/mL (≈ 146 µM) | 8 µg/mL (≈ 18.2 µM) | 16 µg/mL (≈ 36.4 µM) | 0.125 µg/mL (≈ 0.284 µM) | 64 µg/mL (≈ 146 µM)
11 | Cc1cc(-c2ccc(COC(C)(C(=O)NO)C(=O)NCc3cc(C)on3)cc2)ccn1 (stereo not drawn) [Example 86, N-hydroxy-2-methyl-N′-[(5-methylisoxazol-3-yl)methyl]-2-{[4-(2-methylpyridin-4-yl)benzyl]oxy}malonamide] | > 64 µg/mL | > 64 µg/mL | – | 0.00681 µM | > 64 µg/mL | 16 µg/mL (≈ 37.7 µM) | > 64 µg/mL | 0.25 µg/mL (≈ 0.589 µM) | > 64 µg/mL
12 | Cc1ccnc(-c2ccc(COC(C)(C(=O)NO)C(=O)NCc3cc(C)on3)cc2)c1 (stereo not drawn) [Example 87, N-hydroxy-2-methyl-N′-[(5-methylisoxazol-3-yl)methyl]-2-{[4-(4-methylpyridin-2-yl)benzyl]oxy}malonamide] | > 64 µg/mL | > 64 µg/mL | – | 0.0023 µM | > 64 µg/mL | 32 µg/mL (≈ 75.4 µM) | > 64 µg/mL | 0.25 µg/mL (≈ 0.589 µM) | > 64 µg/mL
13 | Cc1cc(CNC(=O)C(C)(OCc2ccc(-c3ccc(F)cn3)cc2)C(=O)NO)no1 (stereo not drawn) [Example 88, 2-{[4-(5-fluoropyridin-2-yl)benzyl]oxy}-N-hydroxy-2-methyl-N′-[(5-methylisoxazol-3-yl)methyl]malonamide] | > 64 µg/mL | > 64 µg/mL | – | 0.00698 µM | > 64 µg/mL | 64 µg/mL (≈ 149 µM) | > 64 µg/mL | 0.5 µg/mL (≈ 1.17 µM) | > 64 µg/mL
14 | Cc1cccc(-c2ccc(COC(C)(C(=O)NO)C(=O)NCc3cc(C)on3)cc2)n1 (stereo not drawn) [Example 89, N-hydroxy-2-methyl-N′-[(5-methylisoxazol-3-yl)methyl]-2-{[4-(6-methylpyridin-2-yl)benzyl]oxy}malonamide] | > 64 µg/mL | > 64 µg/mL | – | 0.0135 µM | > 64 µg/mL | > 64 µg/mL | > 64 µg/mL | 1 µg/mL (≈ 2.36 µM) | > 64 µg/mL
15 | Cc1cc(CNC(=O)C(C)(OCc2ccc(-c3cnccn3)cc2)C(=O)NO)no1 (stereo not drawn) [Example 90, N-hydroxy-2-methyl-N′-[(5-methylisoxazol-3-yl)methyl]-2-[(4-pyrazin-2-ylbenzyl)oxy]malonamide] | > 64 µg/mL | > 64 µg/mL | – | 0.147 µM | > 64 µg/mL | > 64 µg/mL | > 64 µg/mL | 4 µg/mL (≈ 9.72 µM) | > 64 µg/mL
